From publication PMC8521618 (ACS Medicinal Chemistry Letters, 2021)

Assay: Pharmacokinetics in mice
Conditions: for Vd: Vss, PK parameters (mouse)
[1] = CD1, mouse, in vivo, iv, 1 mg/kg, Table 3

SMILES | Vd [1] | estimated Fa (mouse, 50 mpk) | half-life (CD1, mouse, in vivo, iv, 1 mg/kg, terminal t1/2, PK parameters (mouse), Table 3) | fraction absorbed (mouse, 10 mpk, 0.5% CMC/0.1% Tween80) | estimated Fa (mouse, 30 mpk)
CC(=O)N(C)C1CCN(c2cc(F)cc(NC(=O)c3cc4c(F)ccc(C)c4[nH]3)c2)C1 (stereo not drawn) [Compound 25, 4-fluoro-N-[3-fluoro-5-[3-(N-methylacetamido)pyrrolidin-1-yl]phenyl]-7-methyl-1H-indole-2-carboxamide] | 1.04 L/kg | <0.01 (50 mpk) | – | – | –
Cc1ccc(F)c2cc(C(=O)N[C@@H]3CCC[C@H](N4CC[C@H](N(C)S(C)(=O)=O)C4)C3)[nH]c12 [Compound 32] | 8.13 L/kg | – | 3.13 h | 0.6 | 0.7 (30 mpk)
